Laboratory results from PMC12202533, “Mechanistic Insights and Anti-cancer Activity of 2H-benzo[b][1,4]oxazin-3(4H)-one Linked 1,2,3-Triazoles in Human Cancer Cells” (Frontiers in Pharmacology, 2025).
Like-named read-outs stand apart in the source and are kept apart here.

What was measured:
[1] = tested on: MV4-11; set-up: method as in Rajitha et al., 2011; settings: ref Rajitha et al., 2011; cited from earlier work
[2] = tested on: A549; set-up: method as in Rajitha et al., 2011; settings: ref Rajitha et al., 2011; cited from earlier work
[3] = tested on: DLD-1; set-up: method as in Rajitha et al., 2011; settings: ref Rajitha et al., 2011; cited from earlier work
[4] = tested on: HeLa cells; set-up: method as in Srinivas Reddy et al., 2022; settings: ref Srinivas Reddy et al., 2022; cited from earlier work
[5] = tested on: A549 lung cancer cell; set-up: method as in Zhou et al. (2014); settings: by inducing autophagy and cell cycle arrest; ref Zhou et al. (2014); cited from earlier work
[6] = tested on: HCT116 cells; set-up: method as in El Hamaky et al., 2024; settings: ref El Hamaky et al., 2024, cited from earlier work
[7] = tested on: topoisomerase I; set-up: method as in El Hamaky et al., 2024; settings: ref El Hamaky et al., 2024; cited from earlier work
[8] = tested on: topoisomerase II; set-up: method as in El Hamaky et al., 2024; settings: ref El Hamaky et al., 2024; cited from earlier work
[9] = tested on: tubulin polymerization; set-up: method as in El Hamaky et al., 2024; settings: ref El Hamaky et al., 2024; cited from earlier work
[10] = tested on: A549 cells; set-up: method as in Bollu et al., 2017; settings: ref Bollu et al., 2017; cited from earlier work
[11] = tested on: HepG2 cells; set-up: method as in Xie et al., 2023; settings: ref Xie et al., 2023, cited from earlier work
[12] = tested on: HCT116 cells; set-up: method as in Mohammed et al., 2022; settings: MTT assay; ref Mohammed et al., 2022; cited from earlier work
[13] = target: topoisomerase II; set-up: method as in Mohammed et al., 2022; settings: ref Mohammed et al., 2022; cited from earlier work
[14] = tested on: HeLa; set-up: method as in Yan et al., 2019; settings: ref Yan et al., 2019; cited from earlier work
[15] = tested on: PI3Kα; set-up: method as in Yan et al., 2019; settings: ref Yan et al., 2019; read-out: IC50 against PI3Kα; cited from earlier work
[16] = set-up: method as in Yan et al., 2019; settings: mice; ref Yan et al., 2019; cited from earlier work
[17] = tested on: A549 cells; set-up: method as in Yan et al., 2019; settings: ref Yan et al., 2019; cited from earlier work
[18] = CCK-8 cell viability assay, normal cell line; format: cell-based; settings: human, BEAS-2B cells (normal cell line), BEAS-2B normal cell line, read-out: Cell viability (100%), 40 μM, 48 h, BEAS-2B
Procedure: (§1) In order to investigate the anticancer activity of new synthetic 1,4-benzoxazinone-linked 1,2,3-triazole compounds, we chose several cancer cell lines, including A549 (lung), Huh7 (liver), MCF-7 (breast), HCT-116 (colon), and SKOV3 (ovary), and measured cell viability using the CCK-8 assay. Cells were exposed to 40 μM of the compounds for 48 h, and then cell viability was determined. […] In addition, we used the reference drug gefitinib as a positive control and measured its cell viability on different cell lines. […] We used BEAS-2B cells as a normal cell line to determine the toxic effects of these compounds on normal cells. […] Furthermore, we evaluated the IC50 of these compounds in A549.
(§2) Cells were cultured in DMEM or RPMI 1640 medium containing 10% FBS and 1% penicillin/streptomycin at 37°C and 5% CO2. The CCK-8 assay was performed on several human cancer cell lines, including A549, Huh7, MCF-7, HCT-116, and SKOV3, according to the manufacturer’s instructions. Cells were plated at a density of 5 × 10^3 cells per well in a 96-well plate. After 24 h of incubation, cells were treated with 40 μM compounds for 48 h. Cell viability was assessed by adding 10 μL of CCK-8 reagent, dissolved in the cell culture medium, and incubating for 1 h. Absorbance was measured at 450 nm using a microplate reader. IC50 values were determined using a dose-response curve with six concentrations (0, 10, 20, 40, 80, and 160 μM), and IC50 values were calculated using GraphPad Prism software.

[19] = tested on: HCT-116; experiment: CCK-8 cell viability assay; format: cell-based; settings: Homo sapiens, HCT-116, 40 μM, 48 h, read-out: Cell viability (100%), 40 μM, 48 h, HCT-116
Procedure: as §1
(§3) Human cancer cell lines A549, Huh7, MCF-7, HCT-116, and SKOV3 were obtained from ATCC. The cells were cultured in DMEM or RPMI 1640 medium supplemented with 10% FBS and 1% penicillin/streptomycin and incubated at 37°C in a CO2-humidified atmosphere.
as §2

[20] = tested on: SKOV3; experiment: CCK-8 cell viability assay; format: cell-based; settings: Homo sapiens, SK-OV-3, SKOV3, 40 μM, 48 h, read-out: Cell viability (100%), 40 μM, 48 h, SKOV3
Procedure: as §1, §3, §2

[21] = tested on: MCF-7; experiment: CCK-8 cell viability assay; format: cell-based; settings: Homo sapiens, MCF7, MCF-7, 40 μM, 48 h, read-out: Cell viability (100%), 40 μM, 48 h, MCF-7
Procedure: as §1, §3, §2

[22] = tested on: Huh7; experiment: CCK-8 cell viability assay; format: cell-based; settings: Homo sapiens, Huh-7, Huh7, 40 μM, 48 h, read-out: Cell viability (100%), 40 μM, 48 h, Huh7
Procedure: as §1, §3, §2

[23] = tested on: A549; experiment: CCK-8 cell viability assay and IC50 measurement; format: cell-based, human; settings: Homo sapiens; A549, 40 μM, 48 h, CCK-8; read-out: Cell viability (100%), 40 μM, 48 h, A549
Procedure: as §1, §3, §2

O=C1COc2ccc(-c3[nH]c(-c4ccc(C(F)(F)F)cc4)nc3-c3ccccc3)cc2N1 [compound 5]
viability of MV4-11 cells [1]: significantly reduced | viability of A549 cells [2]: significantly reduced | viability of DLD-1 cells [3]: significantly reduced

N#Cc1ccc(-n2nnc3c2-c2cc(Cl)c4cccnc4c2OC3)cc1 [compound 9]
IC50 [4]: 3.38 ± 1.14 µM

COc1cc(/C=C/C(=O)c2ccc3c(c2)NC(=O)CO3)cc(OC)c1 [compound 4]
A549 lung cancer cell growth [5]: effectively suppressed

Cc1ccc(NC(=O)Cn2cc(CSc3nc4ccccc4c(=O)n3-c3ccccc3)nn2)cc1 [compound 8]
γ-H2AX protein expression ([6]; HCT116): upregulated | IC50 [6]: 4.87 ± 0.78 µM | topoisomerase I inhibition [7]: significantly inhibited | topoisomerase II inhibition [8]: significantly inhibited | tubulin polymerization inhibition [9]: significantly inhibited

COc1ccc(-c2nc3ccccc3c(=O)n2C/C=C/c2ccc(C(=O)CN3C(=O)COc4ccccc43)cc2)c(OC)c1OC [compound 3]
GI50 [10]: 0.32 µM

COc1c2n(cc(C(=O)Nc3cccc(-c4cn(-c5c(C)cc(C)cc5C)nn4)c3)c1=O)C[C@H]1OC[C@H](C)N1C2=O [compound 7]
apoptosis, G2/M phase arrest, and DNA damage ([11]; concentration-dependent): induced | IC50 [11]: 4.07 ± 0.09 µM

COc1ccc(/C=C/C(=O)c2ccc(-n3cc(CN4CCN(c5cc6c(cc5F)c(=O)c(C(=O)O)cn6C5CC5)CC4)nn3)cc2)cc1OC [compound 10]
IC50 [12]: 10.6 ± 0.8 µM | IC50 [13]: 19.7 ± 0.79 µM

COc1ccc(N2C(=O)COc3ccc(-c4cnc(OC)c(NS(=O)(=O)c5ccc(F)cc5)c4)cc32)cc1 [compound 6]
IC50 [14]: 1.35 µM | IC50 [15]: 0.00063 µM | oral bioavailability [16]: good | IC50 [17]: 1.22 µM

N#Cc1ccccc1Cn1cc(-c2cccc(C(=O)Nc3ccc4c(c3)NC(=O)CO4)c2)nn1 [Compound 13o]
viability at 48 h, 40 µM [18]: 109 ± 1.51% | viability at 40 µM [19]: 97.9 ± 1.02% | viability at 40 µM [20]: 98.4 ± 2.58% | viability at 40 µM [21]: 103 ± 2.66% | viability at 40 µM [22]: 104 ± 2.7% | viability at 40 µM [23]: 64 ± 6.89%

Cc1cc(C)cc(Cn2cc(-c3cccc(C(=O)Nc4ccc5c(c4)NC(=O)CO5)c3)nn2)c1 [Compound 13b]
viability at 48 h, 40 µM [18]: 105.7 ± 0.38% | viability at 40 µM [19]: 124 ± 4.48% | viability at 40 µM [20]: 115 ± 2.08% | viability at 40 µM [21]: 112 ± 2.33% | viability at 40 µM [22]: 108 ± 1.9% | viability at 40 µM [23]: 114.5 ± 1.06%
